Assay results as given in PubChem BioAssay AID651630 (Sanford-Burnham Center for Chemical Genomics, 2012).
pIC50: −log10 of the molar value. Active and inactive are the calls of the source.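 The calls were made as follows: active = lipid-stain IC50 at or below a set limit, with nuclear-stain toxicity IC50 at least five times higher; inactive = the rest.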

Assays:
[1] = system: DAPI; assay: TAG lipid buildup inhibition with viability readout – cell-based, panel, Nile Red and DAPI fluorescence, H9c2, dose response (AID 651630); conditions: H9c2 cells, DAPI nuclear fluorescence (cytotoxicity counter-readout), oleic acid;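 also: cells exposed to compound overnight before fixation and staining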
[2] = system: TAG; assay: as above; conditions: H9c2 cells, Nile Red TAG fluorescence, oleic acid

SMILES	IC50 cytotoxicity (DAPI nuclear signal decrease) ([1]; mean of runs)	IC50 cytotoxicity (DAPI nuclear signal decrease) ([1]; run 1)	IC50 cytotoxicity (DAPI nuclear signal decrease) ([1]; run 2)	IC50 ([2]; mean of runs)	pIC50 ([2]; run 1)	pIC50 ([2]; run 2)	pIC50 ([2]; mean of runs)
CCC(C)(C)NC(=O)C(c1ccc(OC)cc1)N(Cc1ccco1)C(=O)CCC(=O)Nc1cc(C)on1 (configuration not stated)	> 25 µM (inactive)	> 25 µM	> 25 µM	17.9 µM (inactive)	4.68	4.83	–
CCOc1ccc(OCC)c(NC(=O)CN(c2ccc(C)cc2)S(=O)(=O)c2c(C)noc2C)c1	> 25 µM (inactive)	> 25 µM	> 25 µM	19.6 µM (inactive)	4.77	4.66	–
CCOC(=O)[C@H]1[C@H]2COc3ccc(C)cc3[C@@H]2N2C(=O)c3cc(Br)ccc3NC(=O)[C@@]12C	> 25 µM (inactive)	> 25 µM	> 25 µM	21.6 µM (inactive)	4.65	4.68	–
CCCC(=O)Nc1nc2ccc(NC(=O)c3c(F)c(F)c(OC)c(F)c3F)cc2s1	> 25 µM (inactive)	> 25 µM	> 25 µM	–	5.18	5.24	5.21
CN(C)CCCN1c2ccccc2Sc2ccccc21	> 25 µM (inactive)	> 25 µM	> 25 µM	> 25 µM (inactive)	< 4.60	< 4.60	–
COc1cc(NC(=O)c2csc(N)n2)cc(C(=O)Nc2cccc(C(F)(F)F)c2)c1	> 25 µM (inactive)	> 25 µM	> 25 µM	–	4.97	4.79	4.87
COc1ccc(Nc2nc3cc(-c4sccc4C)sc3c(=O)n2C)cc1OC	> 25 µM (inactive)	> 25 µM	> 25 µM	16.6 µM (inactive)	4.78	4.78	–
COc1ccc(-c2cc(NC=O)c3ncc(-c4ccc(OC)c(OC)c4)n3c2)cc1	–	> 25 µM	5.58 µM	–	4.90	4.86	4.88
COc1ccc(-c2csc(NC(=S)NC(=O)/C=C/c3ccco3)n2)cc1Br	> 25 µM (inactive)	> 25 µM	> 25 µM	–	5.23	5.00	5.10
CSc1ccc(C2=C/C(=C3/SC(=S)NC3=O)c3ccccc3O2)cc1	> 25 µM (inactive)	> 25 µM	> 25 µM	–	4.93	4.76	4.84
CCC(=O)Nc1ccc(-c2nnc(-c3ccccc3)o2)cc1	> 25 µM (inactive)	> 25 µM	> 25 µM	> 25 µM (inactive)	< 4.60	< 4.60	–
CC(C)CC(N)c1csc(NC(=O)Nc2ccccc2Cc2ccccc2)n1 (configuration not stated)	–	20.4 µM	> 25 µM	> 25 µM (inactive)	< 4.60	< 4.60	–
COc1ccc(NC(=O)N(C)[C@H]2C[C@H]3c4[nH]c5ccc(-c6ccc7c(c6)OCO7)cc5c4CCN3C[C@H]2[C@H](C)O)cc1	> 25 µM (inactive)	> 25 µM	> 25 µM	–	5.09	5.17	5.13
NC(Cc1ccc(F)cc1)c1csc(Nc2ccc(C(F)(F)F)cn2)n1 (configuration not stated)	–	> 25 µM	23.8 µM	–	< 4.60	5.08	–
COc1cc(OC)c2c(-c3ccccc3)cc(=O)oc2c1C(CCN1CCN(c2ccccc2)CC1)c1ccc(N(C)C)cc1 (configuration not stated)	> 25 µM (inactive)	> 25 µM	> 25 µM	–	5.17	5.23	5.20
O=C(CSc1nc(Nc2ccccc2)nc(N2CCOCC2)n1)N1CCCC1	–	22.1 µM	> 25 µM	–	4.93	4.90	4.91
CCc1nn2c(N3CCOCC3)cc(C)nc2c1-c1ccc(F)cc1	> 25 µM (inactive)	> 25 µM	> 25 µM	–	< 4.60	> 6.11	–
CC(C)=CCC/C(C)=C/CNC(=O)C[C@H]1C[C@H](C(=O)N2CCCCC2)[C@@]2(CCc3ccccc3)c3[nH]c4cc(-c5ccco5)ccc4c3CCN2C1=O	> 25 µM (inactive)	> 25 µM	> 25 µM	–	4.98	5.03	5.00
CCOC(=O)c1c(CSC(=N)N)n(-c2ccccc2)c2cc(Br)c(OC(C)=O)cc12	> 25 µM (inactive)	> 25 µM	> 25 µM	18 µM (inactive)	4.77	4.72	–
Cn1c(N)c(C(=O)COC(=O)c2ccc([N+](=O)[O-])o2)c(=O)n(C)c1=O	19.1 µM (inactive)	18.4 µM	19.8 µM	–	5.05	4.95	5.00
COc1ccc(C(C(=O)NC(C)(C)C)N(Cc2cccs2)C(=O)CCC(=O)Nc2cc(C)on2)cc1 (configuration not stated)	> 25 µM (inactive)	> 25 µM	> 25 µM	–	4.90	4.84	4.87
CCCCN1C(=O)/C(=C/C=C2/C=Cc3ccccc3N2CC)SC1=S	–	> 25 µM	> 25 µM	–	5.62	5.21	5.37
C=CCC[C@H](Cc1ccc(F)cc1)C(=O)OC[C@H](C)NC(=O)[C@@H](CC=C)CC(=O)N[C@H](CO)Cc1ccccc1	> 25 µM (inactive)	> 25 µM	> 25 µM	15.4 µM (inactive)	4.92	4.72	–
CC(=O)Nc1ccc(-c2ccnc3c2CC(C(=O)NCc2cccc(Cl)c2)O3)cc1 (configuration not stated)	> 25 µM (inactive)	> 25 µM	> 25 µM	–	4.80	4.97	4.88
COc1ccc(CC(N)c2csc(NC(=O)Nc3ccccc3-c3ccccc3)n2)cc1 (configuration not stated)	17.6 µM (inactive)	19.3 µM	15.9 µM	–	< 4.60	4.81	–
